One may read the EC50 as the concentration needed to bring the measured effect to its halfway point.

Assay [1] has as its target human CB2 receptor (Homo sapiens (Human), UniProt P34972). Briefly: cAMP assay, CHO cells expressing human CB2 receptors. Type of assay: cell-based. To be noted: functional cAMP assay, CHO cells expressing human CB2; read-out: human CB2 EC50. How it is done: (§1) CHO cells expressing human CB1 or CB2 receptors are seeded 17-24 hours prior to the experiment 50.000 cells per well in a black 96 well plate with flat clear bottom (Corning Costar #3904) in DMEM (Invitrogen No. 31331), lx HT supplement, with 10% fetal calf serum and incubated at 5% CO2 and 37° C. in a humidified incubator. The growth medium was exchanged with Krebs Ringer Bicarbonate buffer with 1 mM IBMX and incubated at 30° C. for 30 min. Compounds were added to a final assay volume of 100 μl and incubated for 30 min at 30° C. Using the cAMP-Nano-TRF detection kit the assay (Roche Diagnostics) was stopped by the addition of 50 μl lysis reagent (Tris, NaCl, 1.5% Triton X100, 2.5% NP40, 10% NaN3) and 50 μl detection solutions (20 μM mAb Alexa700-cAMP 1:1, and 48 μM Ruthenium-2-AHA-cAMP) and shaken for 2 h at room temperature. The time-resolved energy transfer is measured by a TRF reader (Evotec Technologies GmbH), equipped with a ND:YAG laser as excitation source. The plate is measured twice with the excitation at 355 nm and at the emission with a delay of 100 ns and a gate of 100 ns, total exposure time 10 s at 730 (bandwidth 30 nm) or 645 nm (bandwidth 75 nm), respectively. The FRET signal is calculated as follows: FRET=T730-Alexa730-P(T645-B645) with P=Ru730-B730/Ru645-B645, where T730 is the test well measured at 730 nM, T645 is the test well measured at 645 nm, B730 and B645 are the buffer controls at 730 nm and 645 nm, respectively. cAMP content is determined from the function of a standard curve spanning from 10 μM to 0.13 nM cAMP.
(§2) EC50 values were determined using Activity Base analysis (ID Business Solution, Limited). The EC50 values for a wide range of cannabinoid agonists generated from this assay were in agreement with the values published in the scientific literature.

For assay [2], the target named is human CB1 receptor (Homo sapiens (Human), UniProt P21554). Briefly: cAMP assay, CHO cells expressing human CB1 receptors. Type of assay: cell-based. To be noted: functional cAMP assay, CHO cells expressing human CB1; read-out: human CB1 EC50. The procedure:
as §1, §2
In general terms: Changes in cAMP serve as a functional read-out for many G protein-coupled receptors.

Molecules are shown by their SMILES.

Sequence of human CB1 receptor (P21554 whole entry): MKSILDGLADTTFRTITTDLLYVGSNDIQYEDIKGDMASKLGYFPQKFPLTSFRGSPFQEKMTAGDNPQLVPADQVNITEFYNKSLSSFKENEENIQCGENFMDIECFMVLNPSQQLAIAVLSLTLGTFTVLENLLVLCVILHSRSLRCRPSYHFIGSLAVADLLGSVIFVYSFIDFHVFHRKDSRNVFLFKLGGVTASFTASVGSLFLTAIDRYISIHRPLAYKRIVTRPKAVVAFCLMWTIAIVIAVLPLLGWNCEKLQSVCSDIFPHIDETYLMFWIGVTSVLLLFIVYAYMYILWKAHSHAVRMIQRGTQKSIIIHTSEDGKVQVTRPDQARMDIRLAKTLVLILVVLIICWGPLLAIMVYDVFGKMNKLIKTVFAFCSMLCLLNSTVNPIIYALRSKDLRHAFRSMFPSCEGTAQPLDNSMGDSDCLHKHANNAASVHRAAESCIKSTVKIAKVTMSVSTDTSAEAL
Sequence of human CB2 receptor (P34972 whole entry): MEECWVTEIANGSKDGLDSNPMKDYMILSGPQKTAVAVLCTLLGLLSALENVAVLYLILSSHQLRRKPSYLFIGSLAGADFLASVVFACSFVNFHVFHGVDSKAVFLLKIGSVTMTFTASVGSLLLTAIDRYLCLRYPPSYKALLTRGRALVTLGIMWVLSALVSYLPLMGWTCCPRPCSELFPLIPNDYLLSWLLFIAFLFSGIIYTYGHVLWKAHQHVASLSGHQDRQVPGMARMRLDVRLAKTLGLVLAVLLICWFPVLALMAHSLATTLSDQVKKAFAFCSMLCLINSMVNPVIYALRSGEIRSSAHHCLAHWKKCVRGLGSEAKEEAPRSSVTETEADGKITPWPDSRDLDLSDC

Regarding `Cc1nonc1Cn1ncc2c(N3CC[C@H](O)C3)nc(C(C)(C)C)nc21` [Example 25, (S)-1-[6-tert-Butyl-1-(4-methyl-furazan-3-ylmethyl)-1H-pyrazolo[3,4-d]pyrimidin-4-yl]-pyrrolidin-3-ol], the EC50 in assay [1] was 0.4 nM; in assay [2] it was greater than 10000 nM.
Take `CC(C)(C)c1nc(N2CCC(F)(F)C2)c2cnn(Cc3ccccc3)c2n1` [Example 2, 1-Benzyl-6-tert-butyl-4-(3,3-difluoro-pyrrolidin-1-yl)-1H-pyrazolo[3,4-d]pyrimidine]: the figures for the EC50 in assay [1] and in assay [2] were 3.3 nM and greater than 10000 nM, respectively.
For `CC(C)(C)c1nc(N2CCC[C@@H]2CO)c2cnn(Cc3ccccc3C(F)(F)F)c2n1` [Example 34, {(R)-1-[6-tert-Butyl-1-[(2-trifluoromethylphenyl)methyl]-1H-pyrazolo[3,4-d]pyrimidin-4-yl]pyrrolidin-2-yl}-methanol], the EC50 is 5 nM in assay [1] and greater than 10000 nM in assay [2].
As for `CC(C)(C)c1nc(N2CCC(F)(F)C2)c2cnn(Cc3ccccc3S(C)(=O)=O)c2n1` [Example 10, 6-tert-Butyl-4-(3,3-difluoro-pyrrolidin-1-yl)-1-(2-methanesulfonyl-benzyl)-1H-pyrazolo[3,4-d]pyrimidine], the figures for the EC50 in assay [1] and in assay [2] were 0.7 nM and 337 nM, respectively.
Turning to `CC(C)(C)c1nc(N2CC[C@H](O)C2)c2cnn(Cc3ccccc3Cl)c2n1` [Example 3, (S)-1-[6-tert-Butyl-1-[(2-chlorophenyl)methyl]-1H-pyrazolo[3,4-d]pyrimidin-4-yl]-pyrrolidin-3-ol], the EC50 is 5.1 nM in assay [1] and greater than 10000 nM in assay [2].
Take `FC1(F)CCN(c2nc(Cl)nc3c2cnn3Cc2ccccc2C(F)(F)F)C1` [Example 37, 6-Chloro-4-(3,3-difluoropyrrolidin-1-yl)-1-[[2-(trifluoromethyl)phenyl]methyl]pyrazolo[3,4-d]pyrimidine]: the EC50 was 17.2 nM in assay [1] and greater than 10000 nM in assay [2].
Take `Cc1nonc1CO[C@H]1CCN(c2nc(C(C)(C)C)nc3c2cnn3Cc2nonc2C)C1` [Example 26, 6-tert-Butyl-4-[(S)-3-(4-methyl-furazan-3-ylmethoxy)-pyrrolidin-1-yl]-1-(4-methyl-furazan-3-ylmethyl)-1H-pyrazolo[3,4-d]pyrimidine]: the EC50 is 35.6 nM in assay [1] and greater than 10000 nM in assay [2].
In the case of `CC(C)(C)c1nc(N2CCC(F)(F)C2)c2cnn(C3CCOC3)c2n1` (stereo not drawn) [Example 14, 6-tert-Butyl-4-(3,3-difluoro-pyrrolidin-1-yl)-1-(tetrahydro-furan-3-yl)-1H-pyrazolo[3,4-d]pyrimidine], the EC50 in assay [1] was 1.3 nM; in assay [2] it was greater than 10000 nM.
Take `Cc1nonc1Cn1ncc2c(N3CCC(F)(F)C3)cc(C3CC3)nc21` [Example 28, 6-Cyclopropyl-4-(3,3-difluoro-pyrrolidin-1-yl)-1-(4-methyl-furazan-3-ylmethyl)-1H-pyrazolo[3,4-b]pyridine]: the EC50 in assay [1] is 1.9 nM; in assay [2] it was greater than 10000 nM.
In the case of `Cn1nnnc1Cn1ncc2c(N3CC[C@H](O)C3)nc(C(C)(C)C)nc21` [Example 31, (S)-1-[6-tert-Butyl-1-(1-methyl-1H-tetrazol-5-ylmethyl)-1H-pyrazolo[3,4-d]pyrimidin-4-yl]-pyrrolidin-3-ol], the half-maximal effective concentration (EC50) in assay [1] was 17.3 nM; in assay [2], greater than 10000 nM.
For `CC(C)(C)c1nc(N2CCC(F)(F)C2)c2cnn(CC(=O)c3ccncc3)c2n1` [Example 21, 2-[6-tert-Butyl-4-(3,3-difluoro-pyrrolidin-1-yl)-pyrazolo[3,4-d]pyrimidin-1-yl]-1-pyridin-4-yl-ethanone], the EC50 is 3.4 nM in assay [1] and greater than 10000 nM in assay [2].
Taken in the same sequence, the figures for `Cc1nonc1Cn1ncc2c(N3CCC(F)(F)C3)nc(C(C)(C)C)nc21` [Example 9, 6-tert-Butyl-4-(3,3-difluoro-pyrrolidin-1-yl)-1-(4-methyl-furazan-3-ylmethyl)-1H-pyrazolo[3,4-d]pyrimidine] were 0.5 nM and greater than 10000 nM.
As to `CC(C)(C)c1nc(N2CCC(F)(F)C2)c2cnn(CCc3ccccc3)c2n1` [Example 8, 6-tert-Butyl-4-(3,3-difluoro-pyrrolidin-1-yl)-1-phenethyl-1H-pyrazolo[3,4-d]pyrimidine], the EC50 in assay [1] is 5.4 nM; in assay [2] it was greater than 10000 nM.
Take `CC(C)(C)c1nc(N2CC[C@H](O)C2)c2cnn(Cc3nnnn3C3CC3)c2n1` [Example 33, (S)-1-[6-tert-Butyl-1-(1-cyclopropyl-1H-tetrazol-5-ylmethyl)-1H-pyrazolo[3,4-d]pyrimidin-4-yl]-pyrrolidin-3-ol]: the EC50 in assay [1] was 8.8 nM; in assay [2] it was greater than 10000 nM.
As for `COC[C@H]1CCCN1c1nc(C(C)(C)C)nc2c1cnn2Cc1nonc1C` [Example 36, 6-tert-Butyl-4-((R)-2-methoxymethyl-pyrrolidin-1-yl)-1-(4-methyl-furazan-3-ylmethyl)-1H-pyrazolo[3,4-d]pyrimidine], the EC50 was 1.4 nM in assay [1] and greater than 10000 nM in assay [2].
